Earlier results on four compounds are cited in paper PMC9322122, “Development of (4-Phenylamino)quinazoline Alkylthiourea Derivatives as Novel NF-κB Inhibitors” (Pharmaceuticals, 2022).

The subject of one data set is TNFα. Particulars: cited from earlier work.
For another data set, the system named is TNFα production. To be noted: THP-1 macrophage model cell line; read-out: IC50 for suppression of TNFα production; cited from earlier work.
The subject of a further data set is IL-1β production. Particulars: THP-1 macrophage model cell line; read-out: IC50 for suppression of IL-1β production; cited from earlier work.
Another data set concerns IKKα. To be noted: read-out: cell-free IC50 IKKα; cited from earlier work.
In a further data set the test system is IKKβ. To be noted: read-out: cell-free IC50 IKKβ; cited from earlier work.
Another data set has as its system NF-κB p65 subunit. Also noted: method as in PMID 28448872. To be noted: covalent modification of the p65 subunit; read-out: IC50, interfering with the binding of NF-κB to its DNA recognition site; cited from earlier work.
The subject of another data set is 26S proteasome. Also noted: method as in PMID 20420526. To be noted: read-out: IC50, inhibition of the activity of the 26S proteasome; cited from earlier work.
A further data set relates to IKKα/β. Also noted: method as in PMID 10768472. Particulars: read-out: IC50, targeting IKKα/β; cited from earlier work.

Turning to `Cc1ccc2nc(NCCN)c3ncc(C)n3c2c1` [BMS-345541], the “inhibition of TNFα in mice after administration of LPS” value in the data set with TNFα is given as “effective in the inhibition of TNFα in mice”. Moreover, the IC50 was roughly 5 µM with TNFα production, roughly 5 µM in the data set on IL-1β production, 4 µM in the data set on IKKα and 0.3 µM in the data set on IKKβ.

Turning to `C=C1C(=O)O[C@@H]2C[C@@H](C)[C@@H]3C=CC(=O)[C@@]3(C)[C@@H](O)[C@H]12` [helenalin], in the data set on NF-κB p65 subunit, the IC50 is 5 µM.

Take `C[C@@]12OC(=O)[C@]1([C@@H](O)[C@@H]1C=CCCC1)NC(=O)[C@@H]2CCCl` [salinosporamide A]: the IC50 in the data set on 26S proteasome was 0.0013 µM.

For cacospongiolide B, the IC50 with IKKα/β is 0.26 µM.
